Values quoted from earlier work, collected in patent US20180064655A1, “Hydroxynorketamine Transdermal Patch” (priority 2016, published 2018).

Experiments:
[1] = metabolite of ketamine
[2] = in vivo
[3] = in vivo; remark: listed apart in the source
[4] = following a single administration

SMILES | antidepressant effect [1] | ketamine-related side-effects [2] | onset of antidepressant effects [4] | persistence of antidepressant effects [4] | efficacy as an antidepressant (in vivo) | side effects limiting clinical use [3]
N[C@@]1(c2ccccc2Cl)CCC[C@@H](O)C1=O [(2R,6R)-HNK, (2R,6R)-hydroxynorketamine] | responsible for the antidepressant effect observed with ketamine treatment | lacks ketamine-related side-effects |  |  |  | 
CNC1(c2ccccc2Cl)CCCCC1=O (stereo not drawn) [Ketamine] |  |  | within hours | approximately one | rapid and robust efficacy as an antidepressant | abuse potential and sensory-dissociation side effects
